Source: BindingDB's records for doi:10.7270/Q2TX3CTT (Broad Institute, 2010)

What follows are molecules tested against Glycogen synthase kinase-3 beta (Homo sapiens, UniProt P49841) (assay: GSK3beta kinase inhibitor potency, dose response, biochemical, luminescence, cell-free homogeneous, retest (AID 434954)).
Sequence of Glycogen synthase kinase-3 beta (P49841 whole entry): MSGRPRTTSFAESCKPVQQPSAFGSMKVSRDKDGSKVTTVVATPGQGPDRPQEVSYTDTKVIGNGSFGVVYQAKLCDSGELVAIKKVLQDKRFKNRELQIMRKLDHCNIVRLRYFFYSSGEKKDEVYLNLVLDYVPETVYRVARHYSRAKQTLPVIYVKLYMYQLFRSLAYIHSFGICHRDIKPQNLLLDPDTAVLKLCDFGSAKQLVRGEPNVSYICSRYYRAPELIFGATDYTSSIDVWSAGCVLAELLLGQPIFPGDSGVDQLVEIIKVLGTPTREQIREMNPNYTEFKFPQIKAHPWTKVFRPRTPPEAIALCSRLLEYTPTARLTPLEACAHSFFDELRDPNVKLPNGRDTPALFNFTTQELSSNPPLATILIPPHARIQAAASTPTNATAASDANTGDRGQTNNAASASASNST

| SMILES | EC50 [µM] |
| --- | --- |
| CN(C)Cc1c(O)ccc2c3c(c(=O)oc12)CCCCC3 [4-Dimethylaminomethyl-3-hydroxy-8,9,10,11-tetrahydro-7H-cyclohepta[c]chromen-6-one] | 78.8 |
| COC1=CC(CN=Nc2ccc([N+](=O)[O-])cn2)C=C(OC)C1=O [MLS001173549] | 5.41 |
| COc1cccc(C(=O)Nc2nc(-c3ccncc3)cs2)c1 [3-methoxy-N-(4-pyridin-4-yl-1,3-thiazol-2-yl)benzamide] | > 300 |
| Cn1c(=O)c2[nH]c(CN3CCN(Cc4ccccc4)CC3)nc2n(C)c1=O [SMR000120891] | > 300 |
| CCOC(=O)c1c(C)[nH]c(C)c1C(=O)COC(=O)CNC(=O)c1ccc(OCC)cc1 [4-[2-[2-[[(4-ethoxyphenyl)-oxomethyl]amino]-1-oxoethoxy]-1-oxoethyl]-2,5-dimethyl-1H-pyrrole-3-carboxylic acid ethyl ester] | > 300 |
| COC(CNC(=O)CCc1c(C)nc2c(c(C)nn2-c2ccc(C)cc2)c1C)OC [N-(2,2-dimethoxyethyl)-3-[3,4,6-trimethyl-1-(4-methylphenyl)pyrazolo[3,4-b]pyridin-5-yl]propanamide] | > 300 |
| CCCC1=Nc2ncnn2C(c2cccs2)C1C(=O)OCC (stereo not drawn) [5-propyl-7-thiophen-2-yl-1,7-dihydro-[1,2,4]triazolo[1,5-a]pyrimidine-6-carboxylic acid ethyl ester] | 23.2 |
| CCOC(=O)C1C(C)=Nc2ncnn2C1/C=C/c1ccccc1 (stereo not drawn) [MLS000089169] | > 300 |
| COc1cccc(/C=C2\Sc3ccc(C(=O)NCC4CCCO4)cc3N(C)C2=O)c1 (stereo not drawn) [SMR000622267] | > 300 |
| CCN(CC)Cc1c(C(=O)NN=Cc2cccs2)nnn1-c1nonc1N [1-(4-amino-1,2,5-oxadiazol-3-yl)-5-(diethylaminomethyl)-N-(thiophen-2-ylmethylideneamino)triazole-4-carboxamide] | 5.16 |
| O=c1cc(-c2ccccc2Cl)oc2c(Br)ccc(O)c12 [8-bromo-2-(2-chlorophenyl)-5-hydroxy-1-benzopyran-4-one] | > 300 |
| COc1ccc(OC)c(Nc2nc(N)c([N+](=O)[O-])c(NC3CCCCC3)n2)c1 [N4-cyclohexyl-N2-(2,5-dimethoxyphenyl)-5-nitropyrimidine-2,4,6-triamine] | > 300 |
| O=C(NC1CCC(C(=O)O)CC1)OCc1ccccc1 (stereo not drawn) [4-(phenylmethoxycarbonylamino)cyclohexane-1-carboxylic acid] | > 300 |
| CC(C)C1Cc2c(sc3c2c(=O)n(-c2ccccc2)c2n[nH]c(=S)n32)CO1 (stereo not drawn) [7-Isopropyl-1-mercapto-4-phenyl-6,9-dihydro-4H,7H-8-oxa-10-thia-2,3,4,10b-tetraaza-cyclopenta[a]fluo ren-5-one] | > 300 |
| O=C1Nc2cc(C(=O)NCCCN3CCCC3)ccc2S/C1=C\c1ccccc1 [(2Z)-3-oxidanylidene-2-(phenylmethylidene)-N-(3-pyrrolidin-1-ylpropyl)-4H-1,4-benzothiazine-6-carboxamide] | 5.9 |
| NS(=O)(=O)c1ccc(N/N=C2\C(=O)Nc3ccc(Br)cc32)cc1 [SMR000592222] | > 300 |
| O=C(O)Cn1cc(CN=Nc2ccc([N+](=O)[O-])cn2)c2ccccc21 [SMR000540193] | 8.24 |
| Cc1nc(Nc2ccccc2)sc1C(=O)c1ccc(F)cc1 [SMR000567585] | > 300 |
| COc1ccc(COC(=O)C2C(C)=NC(=O)NC2c2ccc(O)c(OC)c2)cc1 (stereo not drawn) [4-(4-hydroxy-3-methoxyphenyl)-6-methyl-2-oxo-3,4-dihydro-1H-pyrimidine-5-carboxylic acid (4-methoxyphenyl)methyl ester] | > 300 |
| NC(=O)c1c(NC(=O)CN2C(=O)CCC2=O)sc2c1CCCCC2 [SMR000018552] | > 300 |
| COc1cccc(C(=O)c2sc(NC(C)C)nc2N)c1 [MLS000036929] | 0.33 |
| CC(C)(C)C(=O)c1cnc(Nc2ccccc2)s1 [1-(2-anilino-1,3-thiazol-5-yl)-2,2-dimethylpropan-1-one] | > 300 |
| O=C(C(Cc1ccccc1)n1cccc1)N1CCN(c2cccc(Cl)c2)CC1 (stereo not drawn) [SMR000127921] | > 300 |
